No end group written: not given here.
Molecular target: T1, ACE (Oryctolagus cuniculus, UniProt P12822)
T1 sequence (P12822 34-1310): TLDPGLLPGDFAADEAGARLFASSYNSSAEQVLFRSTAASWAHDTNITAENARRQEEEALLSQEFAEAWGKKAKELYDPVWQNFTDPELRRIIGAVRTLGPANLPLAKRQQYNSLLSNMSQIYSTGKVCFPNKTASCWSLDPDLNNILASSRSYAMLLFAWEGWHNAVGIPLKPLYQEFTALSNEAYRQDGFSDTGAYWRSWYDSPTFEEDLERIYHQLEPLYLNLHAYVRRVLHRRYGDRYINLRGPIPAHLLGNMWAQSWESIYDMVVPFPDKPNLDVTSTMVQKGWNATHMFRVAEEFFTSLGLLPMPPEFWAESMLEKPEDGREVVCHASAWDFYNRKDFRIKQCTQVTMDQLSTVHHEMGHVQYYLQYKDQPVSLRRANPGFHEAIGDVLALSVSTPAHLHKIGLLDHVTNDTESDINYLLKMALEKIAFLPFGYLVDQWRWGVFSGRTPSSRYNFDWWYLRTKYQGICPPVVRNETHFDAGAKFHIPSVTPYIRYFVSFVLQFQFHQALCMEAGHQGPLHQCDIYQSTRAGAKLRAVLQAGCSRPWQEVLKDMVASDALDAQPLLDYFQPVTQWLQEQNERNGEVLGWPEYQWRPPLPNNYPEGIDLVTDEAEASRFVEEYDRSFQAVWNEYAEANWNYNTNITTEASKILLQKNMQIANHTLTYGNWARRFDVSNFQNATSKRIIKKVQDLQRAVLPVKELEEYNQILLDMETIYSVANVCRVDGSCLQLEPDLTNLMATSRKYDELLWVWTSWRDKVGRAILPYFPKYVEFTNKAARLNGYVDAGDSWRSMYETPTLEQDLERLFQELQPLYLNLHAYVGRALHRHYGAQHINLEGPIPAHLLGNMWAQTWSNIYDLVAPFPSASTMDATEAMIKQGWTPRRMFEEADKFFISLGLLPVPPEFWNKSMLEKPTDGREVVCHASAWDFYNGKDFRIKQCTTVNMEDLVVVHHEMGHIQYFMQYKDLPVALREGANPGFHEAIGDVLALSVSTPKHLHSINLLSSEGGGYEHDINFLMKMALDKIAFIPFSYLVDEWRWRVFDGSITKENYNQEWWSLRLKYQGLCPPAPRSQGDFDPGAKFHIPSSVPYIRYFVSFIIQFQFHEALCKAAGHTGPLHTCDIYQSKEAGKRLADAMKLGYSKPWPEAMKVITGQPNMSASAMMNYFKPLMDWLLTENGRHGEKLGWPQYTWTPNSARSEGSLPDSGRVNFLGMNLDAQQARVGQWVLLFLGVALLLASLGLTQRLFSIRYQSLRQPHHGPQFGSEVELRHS
Conditions: Ang-I (1 μg) + peptide (1 μg), ACE 0.05 mU/µL, 200 mM borate buffer, 300 mM NaCl, pH 8.3, 37 °C, 3 h; RA% = AI/(AI+AII)x100, LC-MS SIC

Ang-I remained (RA%) on co-incubation with peptide: 73.9%
Sequence: AYFYPELFR [AR-9]
